From ChEMBL document CHEMBL1136672, “Synthesis and pharmacological activity of fluorescent histamine H1 receptor antagonists related to mepyramine” (Bioorg Med Chem Lett, 2003)

Key:
[1] = molecular target: Histamine H1 receptor (Homo sapiens) (UniProt P35367); conditions: U-373MG ATCC
Description: Histamine H1 receptor antagonistic activity in U373MG human glioblastoma cells using fluorescence-labeled H1 as radioligand in Ca+2 assay

Histamine H1 receptor = Histamine H1 receptor (Cavia porcellus, UniProt P31389); experiment: Histamine H1 receptor antagonistic activity in guinea pig ileum […]; type: functional, tissue-based; conditions: read-out: pA2 (converted)
Chain of Histamine H1 receptor (P31389 whole entry): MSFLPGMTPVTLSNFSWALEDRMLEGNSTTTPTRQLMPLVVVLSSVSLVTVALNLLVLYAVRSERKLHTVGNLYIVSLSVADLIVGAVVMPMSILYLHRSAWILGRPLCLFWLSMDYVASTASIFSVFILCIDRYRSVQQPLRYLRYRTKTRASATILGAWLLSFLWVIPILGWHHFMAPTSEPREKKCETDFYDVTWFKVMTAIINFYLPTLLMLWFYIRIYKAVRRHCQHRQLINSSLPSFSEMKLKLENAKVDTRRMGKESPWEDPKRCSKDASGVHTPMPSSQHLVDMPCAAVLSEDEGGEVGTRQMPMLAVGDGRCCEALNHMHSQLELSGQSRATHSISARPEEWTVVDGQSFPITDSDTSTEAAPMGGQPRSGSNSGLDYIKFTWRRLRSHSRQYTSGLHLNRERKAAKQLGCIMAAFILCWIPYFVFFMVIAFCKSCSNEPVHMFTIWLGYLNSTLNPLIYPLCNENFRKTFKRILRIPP

Chain of Histamine H1 receptor (Homo sapiens) (P35367 whole entry): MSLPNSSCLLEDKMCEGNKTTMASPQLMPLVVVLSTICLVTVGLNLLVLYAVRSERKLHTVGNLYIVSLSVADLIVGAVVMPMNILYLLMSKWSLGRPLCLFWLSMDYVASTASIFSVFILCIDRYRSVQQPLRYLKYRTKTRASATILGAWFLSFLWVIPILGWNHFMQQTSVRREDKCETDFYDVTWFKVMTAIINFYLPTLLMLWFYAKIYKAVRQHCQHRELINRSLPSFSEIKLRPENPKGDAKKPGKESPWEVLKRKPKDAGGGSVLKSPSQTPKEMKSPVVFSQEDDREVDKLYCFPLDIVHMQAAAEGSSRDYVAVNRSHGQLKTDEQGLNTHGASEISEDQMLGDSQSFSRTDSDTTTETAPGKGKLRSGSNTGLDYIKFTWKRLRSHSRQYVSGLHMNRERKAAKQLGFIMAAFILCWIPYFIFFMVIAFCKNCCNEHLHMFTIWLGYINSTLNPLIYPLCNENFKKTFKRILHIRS

| Structure (SMILES) | pKB [1] | Kb (Histamine H1 receptor) [nM] |
| --- | --- | --- |
| COc1ccc(CN(CCN(C)CCNc2ccc([N+](=O)[O-])c3nonc23)c2ccccn2)cc1 | 8.12 |  |
| COc1ccc(CN(CCN(C)CCCCCCNC(=O)c2ccc(-c3c4ccc(=O)cc-4oc4cc(O)ccc34)c(C(=O)O)c2)c2ccccn2)cc1 | 8.17 | 21.4 |
| COc1ccc(CN(CCN(C)CCCCCCNC(=O)c2ccc(C(=O)O)c(-c3c4ccc(=O)cc-4oc4cc(O)ccc34)c2)c2ccccn2)cc1 | 8.4 | 26.3 |
| COc1ccc(CN(CCN(C)CCCCCCCCN)c2ccccn2)cc1 | 8.06 | 9.77 |
| COc1ccc(CN(CCN(C)CCCCCCCCNC(=O)c2ccc(-c3c4ccc(=O)cc-4oc4cc(O)ccc34)c(C(=O)O)c2)c2ccccn2)cc1 | 8.94 | 3.39 |
| COc1ccc(CN(CCN(C)CCCCCCNC(=O)c2ccc(-c3c4ccc5cc(O)ccc5c4oc4c3ccc3cc(=O)ccc34)c(C(=O)O)c2)c2ccccn2)cc1 | 7.18 | 36.3 |
| CNCCN(Cc1ccc(OC)cc1)c1ccccn1 [2-[(2-METHYLAMINOETHYL)(P-METHOXYBENZYL)AMINO]PYRIDINE] | 8.12 | 6.61 |
| COc1ccc(CN(CCN(C)CCCCCCN)c2ccccn2)cc1 | 8.03 | 12.9 |
| COc1ccc(CN(CCN(C)CCN)c2ccccn2)cc1 | 7.84 | 13.2 |
| COc1ccc(CN(CCN(C)CCCCCCCCNC(=O)c2ccc(C(=O)O)c(-c3c4ccc(=O)cc-4oc4cc(O)ccc34)c2)c2ccccn2)cc1 | 8.53 | 5.01 |
| COc1ccc(CN(CCN(C)CCNC(=O)c2ccc(C(=O)O)c(-c3c4ccc(=O)cc-4oc4cc(O)ccc34)c2)c2ccccn2)cc1 | 6.93 | 145 |
| COc1ccc(CN(CCN(C)CCCCNC(=O)c2ccc(-c3c4ccc(=O)cc-4oc4cc(O)ccc34)c(C(=O)O)c2)c2ccccn2)cc1 | 8.47 | 4.47 |
| COc1ccc(CN(CCN(C)CCCCNC(=O)c2ccc(C(=O)O)c(-c3c4ccc(=O)cc-4oc4cc(O)ccc34)c2)c2ccccn2)cc1 | 7.81 | 31.6 |
| COc1ccc(CN(CCN(C)CCNC(=O)c2ccc(-c3c4ccc(=O)cc-4oc4cc(O)ccc34)c(C(=O)O)c2)c2ccccn2)cc1 | 7.21 | 69.2 |
| COc1ccc(CN(CCN(C)CCCCCCNC(=O)c2ccc(-c3c4ccc(=[N+](C)C)cc-4oc4cc(N(C)C)ccc34)c(C(=O)[O-])c2)c2ccccn2)cc1 | 7.54 | 33.1 |
| COc1ccc(CN(CCN(C)CCCCCCNC(=O)c2ccc(-c3c4ccc(=N)cc-4oc4cc(N)ccc34)c(C(=O)O)c2)c2ccccn2)cc1 | 7.68 | 26.3 |
| COc1ccc(CN(CCN(C)CCCCCCNS(=O)(=O)c2cccc3c(N(C)C)cccc23)c2ccccn2)cc1 | 7.76 | 17.8 |
| COc1ccc(CN(CCN(C)CCCCN)c2ccccn2)cc1 | 7.61 | 22.4 |
| COc1ccc(CN(CCN(C)CCCCCCNC(=O)CCCCCNc2ccc([N+](=O)[O-])c3nonc23)c2ccccn2)cc1 | 9.05 | 1.95 |
| COc1ccc(CN(CCN(C)CCNc2ccc([N+](=O)[O-])c3n[o+][n-]c23)c2ccccn2)cc1 |  | 4.68 |
